# Literature values in patent US20160330969A1, “ANTIMICROBIAL COMPOSITIONS AND ARTICLES” (priority 2013, published 2016).
# Conditions: decomposition to chlorite and chlorate species, pH 5-8 region
structure (smiles),measurement,value
"OCl [HOCl, hypochlorous acid]",pH of maximum rate of decomposition,6.89
